The test system of one assay is HeLa. The experiment in a line: HeLa cell cytotoxicity, dose response, cytotoxicity control for MITF activator project, CellTiter-Glo luminescence, cherry-pick samples (AID 540259). In kind it is functional, cell-based. The following applies: Homo sapiens. A general note: ATP-based viability assays read luminescence as a measure of living cells.
A further assay concerns Vero. The experiment in a line: cells. In kind it is functional. The following applies: Chlorocebus sabaeus.
The target in assay [1] is T1, Corticotropin-releasing factor receptor 2/Corticotropin-releasing factor-binding protein (Homo sapiens, UniProt P24387+Q13324).
T1 sequence (Q13324 whole entry): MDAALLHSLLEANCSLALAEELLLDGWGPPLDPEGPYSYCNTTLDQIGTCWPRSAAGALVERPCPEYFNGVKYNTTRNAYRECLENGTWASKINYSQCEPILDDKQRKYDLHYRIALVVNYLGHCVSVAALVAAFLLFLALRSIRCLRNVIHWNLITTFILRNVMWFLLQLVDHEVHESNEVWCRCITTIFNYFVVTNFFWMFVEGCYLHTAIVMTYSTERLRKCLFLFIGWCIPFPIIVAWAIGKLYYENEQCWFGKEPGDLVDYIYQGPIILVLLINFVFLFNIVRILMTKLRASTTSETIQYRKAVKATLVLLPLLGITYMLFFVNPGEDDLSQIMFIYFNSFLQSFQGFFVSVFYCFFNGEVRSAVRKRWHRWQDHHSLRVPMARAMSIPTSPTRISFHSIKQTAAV
T1 sequence (P24387 whole entry): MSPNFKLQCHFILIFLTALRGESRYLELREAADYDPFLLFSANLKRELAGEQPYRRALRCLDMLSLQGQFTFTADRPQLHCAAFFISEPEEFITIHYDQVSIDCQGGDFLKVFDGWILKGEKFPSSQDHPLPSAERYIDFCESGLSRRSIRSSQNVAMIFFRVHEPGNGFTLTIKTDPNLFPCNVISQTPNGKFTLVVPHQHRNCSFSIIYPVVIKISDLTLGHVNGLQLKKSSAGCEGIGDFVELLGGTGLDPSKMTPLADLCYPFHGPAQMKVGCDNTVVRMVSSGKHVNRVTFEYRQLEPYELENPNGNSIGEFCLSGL
The experiment in a line: Dose Response confirmation of uHTS hits for small molecule antagonists of the CRF-binding protein and CRF-R2 receptor complex. Particulars: read-out: IC50_Mean. In kind it is functional.

The target of assay [2] is T1, Corticotropin-releasing factor receptor 2/Corticotropin-releasing factor-binding protein. Put plainly: activators of CRF receptor 2 with binding protein – uHTS hits, confirmation (AID 602473). The class given is functional. The following applies: read-out: EC50_Mean.
A short description of assay [3]: CRF-BP/CRF-R2 complex antagonists, dose response, cell-based, uHTS hits, 384-well (AID 651639). In kind it is functional, Homo sapiens. The following applies: read-out: IC50_Mean.
The target in a further assay is T2, Caspase-3 (Homo sapiens, UniProt P42574).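 Note: Dose-response selectivity test against caspase-3 for candidate inhibitors of sentrin-specific proteases (SENPs).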
T2 sequence (P42574 whole entry): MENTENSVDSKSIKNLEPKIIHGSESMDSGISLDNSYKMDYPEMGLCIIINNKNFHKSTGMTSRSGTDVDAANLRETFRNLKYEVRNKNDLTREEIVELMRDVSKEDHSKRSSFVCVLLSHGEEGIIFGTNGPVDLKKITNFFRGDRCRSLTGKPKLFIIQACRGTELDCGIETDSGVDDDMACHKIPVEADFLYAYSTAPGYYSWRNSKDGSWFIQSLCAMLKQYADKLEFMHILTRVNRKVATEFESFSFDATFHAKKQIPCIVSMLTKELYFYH
The class given is functional.

For assay [4], the target named is T3, Sentrin-specific protease 7 (Homo sapiens, UniProt Q9BQF6).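 Note: Luminescence-based dose-response confirmation of ultra-high-throughput screening hits, measuring inhibition of SENP7.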
T3 sequence (Q9BQF6 whole entry): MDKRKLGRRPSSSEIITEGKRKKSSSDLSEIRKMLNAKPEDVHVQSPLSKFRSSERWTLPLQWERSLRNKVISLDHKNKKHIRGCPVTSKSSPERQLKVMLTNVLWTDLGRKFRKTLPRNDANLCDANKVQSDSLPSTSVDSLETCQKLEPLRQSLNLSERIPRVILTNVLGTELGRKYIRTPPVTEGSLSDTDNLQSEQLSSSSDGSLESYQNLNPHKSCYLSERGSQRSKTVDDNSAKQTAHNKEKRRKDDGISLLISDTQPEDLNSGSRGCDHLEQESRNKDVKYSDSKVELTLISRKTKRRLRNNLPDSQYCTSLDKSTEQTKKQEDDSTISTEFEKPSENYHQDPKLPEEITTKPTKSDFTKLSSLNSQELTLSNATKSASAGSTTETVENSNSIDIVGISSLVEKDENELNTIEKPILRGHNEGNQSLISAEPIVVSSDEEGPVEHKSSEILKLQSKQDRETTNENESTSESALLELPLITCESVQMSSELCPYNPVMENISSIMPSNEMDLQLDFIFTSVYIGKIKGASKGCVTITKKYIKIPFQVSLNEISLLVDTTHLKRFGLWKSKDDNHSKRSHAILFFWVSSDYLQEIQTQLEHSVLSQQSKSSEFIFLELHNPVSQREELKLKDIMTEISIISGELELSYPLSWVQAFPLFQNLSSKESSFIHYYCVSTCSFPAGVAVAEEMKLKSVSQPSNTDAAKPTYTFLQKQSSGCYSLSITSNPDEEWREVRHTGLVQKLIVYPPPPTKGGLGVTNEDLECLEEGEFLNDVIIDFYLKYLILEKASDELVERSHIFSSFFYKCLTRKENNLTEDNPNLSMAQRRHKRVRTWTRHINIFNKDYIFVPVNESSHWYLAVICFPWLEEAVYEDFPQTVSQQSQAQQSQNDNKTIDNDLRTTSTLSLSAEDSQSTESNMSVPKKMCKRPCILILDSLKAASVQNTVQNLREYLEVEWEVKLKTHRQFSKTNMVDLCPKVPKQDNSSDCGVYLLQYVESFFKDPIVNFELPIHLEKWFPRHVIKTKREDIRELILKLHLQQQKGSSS
In kind it is functional.

Assay [5] addresses T4, Sentrin-specific protease 6 (Homo sapiens, UniProt Q9GZR1).
T4 sequence (Q9GZR1 whole entry): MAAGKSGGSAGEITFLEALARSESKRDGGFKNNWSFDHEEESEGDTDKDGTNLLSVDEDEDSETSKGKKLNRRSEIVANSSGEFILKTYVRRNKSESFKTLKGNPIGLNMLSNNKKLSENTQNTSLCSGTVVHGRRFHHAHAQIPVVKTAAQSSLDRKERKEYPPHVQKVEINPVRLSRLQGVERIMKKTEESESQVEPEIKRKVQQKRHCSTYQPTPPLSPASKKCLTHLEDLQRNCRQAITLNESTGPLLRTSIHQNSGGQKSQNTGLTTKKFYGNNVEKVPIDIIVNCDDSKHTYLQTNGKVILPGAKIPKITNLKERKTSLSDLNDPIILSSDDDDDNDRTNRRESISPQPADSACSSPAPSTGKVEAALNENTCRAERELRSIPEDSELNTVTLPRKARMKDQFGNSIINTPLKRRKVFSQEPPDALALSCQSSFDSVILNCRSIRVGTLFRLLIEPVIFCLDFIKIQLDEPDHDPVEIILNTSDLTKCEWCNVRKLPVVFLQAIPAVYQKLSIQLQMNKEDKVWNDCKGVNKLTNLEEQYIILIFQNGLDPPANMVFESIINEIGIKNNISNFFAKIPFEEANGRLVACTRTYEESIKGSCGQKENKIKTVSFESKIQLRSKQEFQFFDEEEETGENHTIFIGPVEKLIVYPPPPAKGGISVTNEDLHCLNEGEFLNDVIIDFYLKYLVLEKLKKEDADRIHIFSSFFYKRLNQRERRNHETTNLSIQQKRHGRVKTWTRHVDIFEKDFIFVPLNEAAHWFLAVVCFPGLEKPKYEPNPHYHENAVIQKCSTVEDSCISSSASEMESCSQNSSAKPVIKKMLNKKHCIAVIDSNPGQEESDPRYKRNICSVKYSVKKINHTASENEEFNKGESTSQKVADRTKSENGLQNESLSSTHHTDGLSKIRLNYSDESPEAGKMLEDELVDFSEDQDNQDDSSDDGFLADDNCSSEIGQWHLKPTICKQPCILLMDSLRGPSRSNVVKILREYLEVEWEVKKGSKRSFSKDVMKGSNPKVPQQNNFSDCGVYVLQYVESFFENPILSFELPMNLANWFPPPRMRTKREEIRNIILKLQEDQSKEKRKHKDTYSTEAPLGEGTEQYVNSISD
In kind it is functional.

Assay [6] concerns the target T5, Sentrin-specific protease 8 (Homo sapiens, UniProt Q96LD8).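 Note: luminescence read-out of SENP8 inhibition, dose-response confirmation following an ultra-high-throughput screen.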
T5 sequence (Q96LD8 whole entry): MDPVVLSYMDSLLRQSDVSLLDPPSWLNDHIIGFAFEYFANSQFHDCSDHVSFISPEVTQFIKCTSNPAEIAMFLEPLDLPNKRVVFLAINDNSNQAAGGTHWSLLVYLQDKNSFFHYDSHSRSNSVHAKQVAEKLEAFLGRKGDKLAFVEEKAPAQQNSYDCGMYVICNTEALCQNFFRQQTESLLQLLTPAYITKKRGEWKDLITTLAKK
In kind it is functional.

In another assay the test system is SN12K1. The experiment in a line: cells. In kind it is functional. The following applies: Homo sapiens.
Assay [7] in a line: Luminescence Cell-Based Dose Confirmation HTS to Identify Activators of 5'UTR Stem-Loop Driven Alpha-Synuclein mRNA Translation in H4 Neuroglioblastoma Cells. [Related pubchem assays: 1829 (Project Summary), 1814 (Primary HTS)]. The class given is functional.
Assay [8] in a line: Luminescence Cell-Based Dose Response HTS to Identify Activators of Luciferase Translation or Activity in H4 […] Cells. [Related pubchem assays: 1829 (Project Summary), 1814 (Primary HTS)]. In kind it is functional.
For another assay, the system named is H4. Put plainly: Luminescence Cell-Based Dose Response HTS to Identify Activators of 5'UTR Stem-Loop Driven Prion Protein mRNA Translation in H4 Neuroglioblastoma Cells. [Related pubchem assays: 1829 (Project Summary), 1814 (Primary HTS)]. The class given is functional. Particulars: Homo sapiens.
A short description of assay [9]: inhibitors of HIV Env-driven cell fusion, dose response, cherry-pick (AID 652057). The class given is functional, cell-based.
Assay [10] is described as follows: CEM21 lymphoblast cell cytotoxicity, dose response, cytotoxicity control for viral fusion inhibitor project, CellTiter-Glo luminescence, cherry-picked (AID 652042).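 Note: potency for signal decrease meaning cytotoxicity.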 In kind it is functional, cell-based.
Assay [11] can be described thus: ZM109 Env clade C HIV-1 fusion inhibitors, dose response, HeLa effector, CEM target cells, luciferase, cherry-pick (AID 652058). In kind it is functional, cell-based.
The nature of assay [12]: off-target signal loss in HeLa-CEM21 co-culture – HeLa F-luc CTL cells, cherry-picked, counter-screen for HIV-1 Env fusion inhibitor project, dose response (AID 652040).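 Note: potency for signal decrease marking cytotoxic or nonspecific inhibition.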 In kind it is functional, cell-based. A general note: Counterscreens check selectivity or assay interference.
The nature of assay [13]: inhibitors of clade B AD8 Env fusion, dose response, cell-based, cherry-pick (AID 652062).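 Note: luciferase signal from cell-cell fusion driven by HIV-1 clade B AD8 Env; potency is for inhibitors of fusion seen as a drop in luminescence.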 The class given is functional.

15 molecules from ChEMBL document CHEMBL1201862, “PubChem BioAssay data set” (2004) can be followed below.

The source made the active and inactive calls. Some results are limits rather than exact numbers.

Turning to `COc1cc(C=O)ccc1OCc1cccc(Br)c1`, the AC50 – broadly, the midpoint of the concentration-response curve, whichever way the signal moves – with HeLa is 85.9 µM (active).

For `Cc1cccnc1NC(=O)Nc1cccc(Cl)c1`, in the assay with HeLa, the AC50 was > 350 µM (inactive).

Take `O=C(COc1cccc2cccnc12)N/N=C/c1cccn1-c1ccc(F)cc1`: the 50% cytotoxic concentration (CC50) (in general, the concentration that lowers cell viability or growth by half) in the assay with Vero is > 25 µM (active).

For `CN(C)c1cccc(C(=O)OCC(=O)Nc2ccccc2Sc2ccccc2)c1`, the IC50 in [1] was 13.1 µM (active); in assay [3], > 20 µM (inactive). For the same molecule, the EC50 in assay [2] is > 53 µM (inactive).

On to `Cc1cc(C(F)(F)F)n(-c2nc(C(=O)N/N=C/c3ccc(F)cc3)cs2)n1`, for which the IC50 in [1] was 10.7 µM (active); in [3] it was > 20 µM (inactive). Further, the EC50 in assay [2] was > 53 µM (inactive).

Regarding `Cn1c(=O)c2ncn(CC(=O)Nc3cccc(-c4nc5ccccc5s4)c3)c2n(C)c1=O`, the IC50 at Caspase-3 was 21.4 µM (active); in assay [4], 15.6 µM (active); in [5], 23.4 µM (active); in assay [6] it was 26.1 µM (active).

Regarding `CN(C(=O)c1ccccc1)c1nc2ccccc2s1`, the IC50 at Caspase-3 is 15.6 µM (active); in assay [4], 6.81 µM (active); in assay [5], 21.1 µM (active); in assay [6], 50.4 µM (active).

`Cc1cc(N2CCCCC2)n2ncc(-c3ccccc3)c2n1`: the IC50 at Caspase-3 is 30.1 µM (active); in assay [4], 6.65 µM (active); in assay [5], 13.8 µM (active); in assay [6], 12.4 µM (active).

As for `Cc1cccc(-c2nnc3sc(-c4ccccc4)nn23)c1`, the concentration at half-maximal activity (AC50) with HeLa was 189 µM (active).

In the case of `CN1CCc2[nH]c3ccccc3c2C1`, the GI50 – broadly, the concentration at which growth is held to half of that of the control – in the assay on SN12K1 was > 100 µM (inactive).

On to `CC1CCC(NC(=O)c2ccc(NS(=O)(=O)c3ccc4[nH]c(O)nc4c3)cc2)CC1` (stereo not given), for which the figures for the EC50 (in assay [7]; in [8]; in the assay with H4) were 23.4 µM (active), 27.8 µM (active) and 8.97 µM (active), respectively. Also, in the assay on HeLa, the half-maximal activity concentration (AC50) is 53.8 µM (active).

Regarding `CCN(CC)C(=O)c1cc2sc3ccccc3c2s1`, the AC50 in the assay on HeLa is 46.9 µM (active).

Turning to `Cc1cccc(-c2cc3nc(-c4ccccc4)cc(O)n3n2)c1`, the IC50 was 3.86 µM (active) on Caspase-3, 2.94 µM (active) in [4], 3.88 µM (active) in assay [5] and 2.01 µM (active) in assay [6].

Consider `CC(C)=C1C2CCC1C(C(=O)Nc1sc(C)c(-c3ccc(C(C)C)cc3)c1C(N)=O)C2C(=O)O` (stereo not given), for which the IC50 in [1] was 5.03 µM (active); in assay [3] it was 18.8 µM (active). In addition, in assay [2], the EC50 is 15.9 µM (active).

Take `COC(=O)[C@]12C[C@H](CC(=O)NCc3ccccc3)C(=O)N(CCC3=CCCCC3)C1=C[C@H](C(C)(C)C)O[C@@H]2C`: the concentration at half-maximal activity (AC50) in assay [9] was 1.76 µM (active); in assay [10] it was 32.7 µM (active); in [11] it was 3.2 µM (active); in [12] it was 2.75 µM (active); in [13] it was 4.31 µM (active).
